In brackets after ≈: the same amount, converted by molar mass.
Key:
Assay type in all cases: cell-based
[1] = test system: ESCHERICHIA COLI H560; experiment: In vitro antibacterial activity, MIC, BHI agar dilution; conditions: E. coli H560, unit assumed
[2] = test system: STREPTOCOCCUS PYOGENES 930; experiment: as above; conditions: S. pyogenes 930, unit assumed
[3] = test system: STAPHYLOCOCCUS AUREUS CMX 553; experiment: as above; conditions: S. aureus CMX 553, unit assumed
[4] = test system: ACINETOBACTER CALCOACETICUS CMX 669; experiment: as above; conditions: A. calcoaceticus CMX 669, unit assumed
[5] = test system: ESCHERICHIA COLI DC-2; experiment: as above; conditions: E. coli DC-2, unit assumed
[6] = test system: PSEUDOMONAS AERUGINOSA DPHD-2862; experiment: as above; conditions: P. aeruginosa DPHD-2862, unit assumed
[7] = test system: PSEUDOMONAS AERUGINOSA DPHD-5263; experiment: as above; conditions: P. aeruginosa DPHD-5263, unit assumed
[8] = test system: PSEUDOMONAS AERUGINOSA BMH10; experiment: as above; conditions: P. aeruginosa BMH10, unit assumed
[9] = test system: STAPHYLOCOCCUS AUREUS CMX 642A; experiment: as above; conditions: S. aureus CMX 642A, unit assumed
[10] = test system: STREPTOCOCCUS PYOGENES EES61; experiment: as above; conditions: S. pyogenes EES61, unit assumed
[11] = test system: M[…] ATCC 9341; experiment: as above; conditions: M. luteus ATCC 9341, unit assumed
Method in brief: (§1)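 BHI agar dilution, 12 plates; inoculum 1:100 (1:10 slow-growing strains), Steers replicator; 35-37° C, 20-24 h. MIC = lowest conc. with no growth/slight haze/sparse colonies vs growth control, visual read. Erythromycin A reference plate.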

[12] = test system: M[…] ATCC 4698; experiment: as above; conditions: M. luteus ATCC 4698, unit assumed
Method in brief: as §1

[13] = test system: STR[…] 508; experiment: as above; conditions: S. agalactiae CMX 508, unit assumed
Method in brief: as §1

[14] = test system: EN[…] ATCC 8043; experiment: as above; conditions: E. faecium ATCC 8043, unit assumed
Method in brief: as §1

[15] = test system: MYCOBACTERIUM SMEGMATIS ATCC 114; experiment: as above; conditions: M. smegmatis ATCC 114, unit assumed
[16] = test system: STAPHYLOCOCCUS AUREUS 1775; experiment: as above; conditions: S. aureus 1775, unit assumed
[17] = test system: CANDIDA ALBICANS CCH 442; experiment: as above; conditions: C. albicans CCH 442, unit assumed
[18] = test system: ENTEROBACTER AEROGENES ATCC 13048; experiment: as above; conditions: E. aerogenes ATCC 13048, unit assumed
[19] = test system: STREPTOCOCCUS BOVIS A-5169; experiment: as above; conditions: S. bovis A-5169, unit assumed
[20] = test system: STREPTOCOCCUS PYOGENES PIU 2548; experiment: as above; conditions: S. pyogenes PIU 2548, unit assumed
[21] = test system: PROVIDENCIA STUARTII CMX 640; conditions: P. stuartii CMX 640; BHI agar; unit assumed
[22] = test system: STAPHYLOCOCCUS AUREUS ATCC 6538P; experiment: In vitro antibacterial activity, MIC, BHI agar dilution; conditions: S. aureus ATCC 6538P, 35-37° C., 20 to 24 hours, unit assumed
[23] = test system: STAPHYLOCOCCUS AUREUS A5177; experiment: as above; conditions: S. aureus A5177, unit assumed
[24] = test system: ESCHERICHIA COLI KNK 437; conditions: E. coli KNK 437; BHI agar; unit assumed
[25] = test system: KLEBSIELLA PNEUMONIAE ATCC 8045; experiment: In vitro antibacterial activity, MIC, BHI agar dilution; conditions: K. pneumoniae ATCC 8045, unit assumed
[26] = test system: PSEUDOMONAS CEPACIA 296I; experiment: as above; conditions: P. cepacia 296I, unit assumed
[27] = test system: ESCHERICHIA COLI JUHL; conditions: E. coli JUHL; BHI agar; unit assumed
[28] = test system: STAPHYLOCOCCUS AUREUS A-5278; experiment: In vitro antibacterial activity, MIC, BHI agar dilution; conditions: S. aureus A-5278, unit assumed
[29] = test system: PSEUDOMONAS AERUGINOSA K799/61; experiment: as above; conditions: P. aeruginosa K799/61, unit assumed
[30] = test system: STAPHYLOCOCCUS AUREUS NCTC10649M; experiment: as above; conditions: S. aureus NCTC10649M, unit assumed
[31] = test system: STAPHYLOCOCCUS EPIDERMIDIS 3519; conditions: S. epidermidis 3519; BHI agar; unit assumed
[32] = test system: PSEUDOMONAS AERUGINOSA K799/WT; experiment: In vitro antibacterial activity, MIC, BHI agar dilution; conditions: P. aeruginosa K799/WT, unit assumed
[33] = test system: PSEUDOMONAS AERUGINOSA 5007; experiment: as above; conditions: P. aeruginosa 5007, unit assumed
[34] = test system: ESCHERICHIA COLI SS; experiment: as above; conditions: E. coli SS, unit assumed

Compound	MIC [1] [µg/mL]	MIC [2] [µg/mL]	MIC [3] [µg/mL]	MIC [4] [µg/mL]	MIC [5] [µg/mL]	MIC [6] [µg/mL]	MIC [7] [µg/mL]	MIC [8] [µg/mL]	MIC [9] [µg/mL]	MIC [10] [µg/mL]	MIC [11] [µg/mL]	MIC [12] [µg/mL]	MIC [13] [µg/mL]	MIC [14] [µg/mL]	MIC [15] [µg/mL]	MIC [16] [µg/mL]	MIC [17] [µg/mL]	MIC [18] [µg/mL]	MIC [19] [µg/mL]	MIC [20] [µg/mL]	further results
CC[C@H]1OC(=O)[C@H](C)C(=O)[C@H](C)[C@@H](O[C@@H]2O[C@H](C)C[C@H](N(C)C)[C@H]2O)[C@](C)(OC)C[C@@H](C)C2=NC[C@H](Cc3ccc(O)cc3)N3C(=O)O[C@@]1(C)[C@H]3[C@H]2C [Example 65]	50 (≈ 67.2 µM)	> 100	0.39 (≈ 0.524 µM)	100 (≈ 134 µM)	50 (≈ 67.2 µM)	> 100	> 100	> 100	0.39 (≈ 0.524 µM)	0.02 (≈ 0.0269 µM)	0.05 (≈ 0.0672 µM)	0.39 (≈ 0.524 µM)	0.02 (≈ 0.0269 µM)	0.1 (≈ 0.134 µM)	6.2 (≈ 8.33 µM)	> 100	> 100	> 100	0.01 (≈ 0.0134 µM)	1.56 (≈ 2.1 µM)	MIC [21]: > 100 µg/mL; MIC [22]: 0.39 µg/mL (≈ 0.524 µM); MIC [23]: 0.39 µg/mL (≈ 0.524 µM); MIC [24]: 100 µg/mL (≈ 134 µM); MIC [25]: > 100 µg/mL; MIC [26]: 100 µg/mL (≈ 134 µM); MIC [27]: 50 µg/mL (≈ 67.2 µM); MIC [28]: > 100 µg/mL; MIC [29]: 0.78 µg/mL (≈ 1.05 µM); MIC [30]: 0.39 µg/mL (≈ 0.524 µM); MIC [31]: 0.39 µg/mL (≈ 0.524 µM); MIC [32]: > 100 µg/mL; MIC [33]: > 100 µg/mL; MIC [34]: 0.39 µg/mL (≈ 0.524 µM)
CC[C@H]1OC(=O)[C@H](C)C(=O)[C@H](C)[C@@H](O[C@@H]2O[C@H](C)C[C@H](N(C)C)[C@H]2O)[C@](C)(OC)C[C@@H](C)C2=N[C@H](COCc3ccc(C(=O)OC)cc3)CN3C(=O)O[C@@]1(C)[C@H]3[C@H]2C [Example 84]	> 100	100 (≈ 123 µM)	0.2 (≈ 0.245 µM)	> 100	> 100	> 100	> 100	> 100	0.2 (≈ 0.245 µM)	0.02 (≈ 0.0245 µM)	0.1 (≈ 0.123 µM)	0.39 (≈ 0.478 µM)	0.02 (≈ 0.0245 µM)	0.05 (≈ 0.0613 µM)	0.78 (≈ 0.956 µM)	> 100	> 100	> 100	≤ 0.005	0.2 (≈ 0.245 µM)	MIC [21]: > 100 µg/mL; MIC [22]: 0.2 µg/mL (≈ 0.245 µM); MIC [23]: 0.2 µg/mL (≈ 0.245 µM); MIC [24]: > 100 µg/mL; MIC [25]: > 100 µg/mL; MIC [26]: > 100 µg/mL; MIC [27]: > 100 µg/mL; MIC [28]: > 100 µg/mL; MIC [29]: 3.1 µg/mL (≈ 3.8 µM); MIC [30]: 0.2 µg/mL (≈ 0.245 µM); MIC [31]: 0.39 µg/mL (≈ 0.478 µM); MIC [32]: > 100 µg/mL; MIC [33]: > 100 µg/mL; MIC [34]: 1.56 µg/mL (≈ 1.91 µM)
CC[C@H]1OC(=O)[C@H](C)C(=O)[C@H](C)[C@@H](O[C@@H]2O[C@H](C)C[C@H](N(C)C)[C@H]2O)[C@](C)(OC)C[C@@H](C)C2=N[C@H](COCc3ccnc4ccccc34)CN3C(=O)O[C@@]1(C)[C@H]3[C@H]2C [Example 85]	> 100	100 (≈ 124 µM)	0.2 (≈ 0.247 µM)	100 (≈ 124 µM)	> 100	> 100	> 100	> 100	0.2 (≈ 0.247 µM)	≤ 0.005	0.02 (≈ 0.0247 µM)	0.78 (≈ 0.964 µM)	0.02 (≈ 0.0247 µM)	0.02 (≈ 0.0247 µM)	3.1 (≈ 3.83 µM)	> 100	> 100	> 100	0.01 (≈ 0.0124 µM)	0.1 (≈ 0.124 µM)	MIC [21]: > 100 µg/mL; MIC [22]: 0.2 µg/mL (≈ 0.247 µM); MIC [23]: 0.2 µg/mL (≈ 0.247 µM); MIC [24]: > 100 µg/mL; MIC [25]: > 100 µg/mL; MIC [26]: 100 µg/mL (≈ 124 µM); MIC [27]: > 100 µg/mL; MIC [28]: > 100 µg/mL; MIC [29]: 3.1 µg/mL (≈ 3.83 µM); MIC [30]: 0.39 µg/mL (≈ 0.482 µM); MIC [31]: 0.2 µg/mL (≈ 0.247 µM); MIC [32]: > 100 µg/mL; MIC [33]: > 100 µg/mL; MIC [34]: 0.78 µg/mL (≈ 0.964 µM)

Source: US6274715A, “Tricyclic erythromycin derivatives” (priority 1997, dated 2001)
